One data set deals with plasma thrombin activity. In words: Plasma thrombin activity in pups pre-treated with PCI-27483 before intestinal injury. The class given is in vivo, mice. The settings on record: pre-treatment with PCI-27483. An excerpt: FIGS. 5A-5F. Resident intestinal macrophages release tissue factor to activate thrombin during neonatal intestinal injury. FIG. 5a. Scatterplots (means±SEM) show tissue factor (TF) concentrations in plasma and intestinal tissue at serial time points during neonatal intestinal injury, measured by ELISA. N=6 mice/group; Kruskal Wallis H test with Dunn's post-test for group comparisons, * P<0.05, ** P<0.01 vs. control; FIG. 5b. Plasma thrombin activity in mouse pups with intestinal injury vs. mouse pups first treated with PCI-27483, which inhibits the tissue factor-factor VII extrinsic pathway tenase complex. N=4 mice/group; Kruskal Wallis H test with Dunn's post-test for group comparisons, ***P<0.001 vs. control, ##P<0.01 vs. control treated with PCI-27483; FIG. 5c. Representative fluorescence photomicrographs show immunoreactivity for TF (green) in F4/80^+ (red) resident macrophages in control ileum and colon. […] FIG. 5d Scatter plots on right summarize the fluorescence intensity for TF in control intestinal epithelial cells (IECs), control macrophages, injury IECs, and injury macrophages (top) and in control colonic epithelial cells (CECs), control macrophages, injury CECs, and injury macrophages. […]
To investigate the mechanisms for thrombin activation, tissue factor (TF) concentrations were evaluated during NEC-like intestinal injury. […]

For data set [1] the following is noted: in vivo; cited from earlier work.
For data set [2] the following is noted: cited from earlier work.
The next data set relates to YFP+ platelets. In words: Transfusion of bivalirudin-pretreated YFP+ platelets into pups with intestinal injury, CD31 expression. It is filed as in vivo, mice. The settings on record: YFP+ platelets pre-treated with bivalirudin prior to transfusion, blood drawn 3 h after transfusion. As to the method: (§1) FIG. 3b. Plasma from mouse pups with intestinal injury activates platelets via thrombin. […] N=3 mice/group; 2 runs; Kruskal Wallis H test with Dunn's post-test for group comparisons, ** P<0.01 vs. control, #P<0.05 vs. intestinal injury; FIG. 3c Thrombin activates platelets during murine neonatal intestinal injury. YFP^+ platelets were transfused into WT C57BL/6 pups with intestinal injury, and blood samples were drawn after 3 h. […] Treatment of YFP^+ platelets with bivalirudin prior to transfusion blocked activation-related increase in CD31 expression (lower right). […] N=4 mice/group; Kruskal Wallis H test with Dunn's post-test for group comparisons, * P<0.05 vs. untreated YFP^+ platelets, #P<0.05 vs. endogenous platelets in the bivalirudin-treated YFP^+ platelet transfusion group. […]
(§2) Platelet activation markers were measured by flow cytometry, using the following fluorescence-labeled antibodies: JON/A (Emfret); anti-CD62P, anti-CD41/GPIIb, CD61/integrin αvβ3, CD31/PECAM-1 (BioLegend, San Diego, Calif.). Platelets were evaluated by size-gate threshold adjustment with microbeads of known diameter (100 nm to 1.3 μm; Spherotech, Lake Forest, Ill.) in forward and side-scatter. […] Platelet aggregation was measured by impedance method and ATP release by luminometry using a 2-channel Chrono-Log lumi-aggregometer (model 700, Chrono-Log, Havertown, Pa., USA) per established methods. […]

The subject of data set [3] is P10 platelets. In words: Duration of bivalirudin inhibition of thrombin-mediated dense granule discharge after point-exposure and wash. The note with it: platelets treated with bivalirudin in vitro and washed; thrombin 25 ng/mL. The class given is cell-based, mice. As to the method: FIG. 13. Line diagrams (means±SEM) show mepacrine fluorescence signal released over time from control (blue) and bivalirudin-treated and washed (orange) P10 platelets into the supernatant, following treatment with thrombin (25 ng/mL). Data represent 3 separate experiments; each experiment included platelets pooled from 3 pups; Kruskal Wallis H test with Dunn's post-test for group comparisons; * P<0.05 vs. control.
In vivo assessment was performed for thrombin-mediated platelet activation during neonatal intestinal injury. […] In the next in vivo study, wild-type neonatal mice 3 h into intestinal injury were transfused with platelets expressing enhanced yellow fluorescence protein (YFP; platelets harvested from progeny of PF4-cre mice (C57BL/6-Tg(Cxcl4-cre)Q3Rsko/J)×R26-stop-YFP mutant mice (B6.129X1-Gt(ROSA)26Sortm1(EYFP)Cos/J). In some mice, YFP^+ platelets were pre-treated with bivalirudin prior to transfusion, and CD31 expression was then measured for both the endogenous and the bivalirudin-treated transfused YFP^+ platelets in blood samples drawn 3 h after the transfusion. Bivalirudin-pretreatment curtailed CD31 expression on YFP^+ platelets (FIG. 3c), providing further evidence for a role of thrombin as the primary platelet activator in NEC-like neonatal intestinal injury. […]

Data set [4] relates to platelets from control pups. Briefly: CD31 expression on control platelets resuspended in intestinal injury plasma. It is filed as cell-based, mice. The settings on record: bivalirudin 200 ng/mL; platelets resuspended ×45 min. As for the experimental part: as §1, §2
Data set [5] deals with P10 platelets. In words: Mixing experiment: dense granule discharge (mepacrine release) of control platelets resuspended in intestinal injury plasma. The settings on record: mepacrine fluorescence released into supernatant; intestinal injury plasma at 3 h with added inhibitor. It is filed as cell-based, mice. As to the method: FIGS. 12A and 12B. (A) Scatter bar diagrams (means±SEM) show mepacrine fluorescence signal released from control P10 platelets into the supernatant, following resuspension in plasma from pups in (1) control group; (2) intestinal injury at 3 h; and (3) intestinal injury at 3 h with added bivalirudin, a synthetic peptide inhibitor of thrombin. N=6 mice/group; (B) mepacrine fluorescence released from control platelets following resuspension in plasma from (1) control group (N=8 mice); (2) intestinal injury at 3 h (N=12 mice); and (3) intestinal injury at 3 h with added D-phenylalanyl-prolyl-arginyl chloromethyl ketone (PPACK), a different thrombin inhibitor (N=11 mice). Kruskal Wallis H test with Dunn's post-test for group comparisons; * P<0.05, ** P<0.01 vs. control; #P<0.05, ###P<0.001 vs. intestinal injury plasma.
(§3) Neonatal platelets can be hyporesponsive under specific conditions, [Mull M M, Hathaway W E. Altered platelet function in newborns. Pediatr Res. 1970; 4(3):229-237] and therefore, the ability of neonatal murine platelets to respond to thrombin was checked. Treatment of mepacrine-stained P10 platelets with recombinant thrombin ([…]) caused dense granule discharge within 15 min (FIG. 11). […]
(§4) Dense granules were stained with mepacrine (Quinacrine dihydrochloride; Sigma). […] Fluorescence was measured at 436/525 nm.

Data set [6] deals with P10 platelets. Briefly: Recombinant thrombin treatment of mepacrine-stained platelets, dense granule discharge. The class given is cell-based, mice. The note with it: recombinant thrombin (25 μg/mL). As to the method:
FIGS. 11A and 11B. Scatter bar diagrams (means±SEM) show (A) mepacrine fluorescence signal in platelets isolated from control P10 mice at serial time-points after treatment with recombinant thrombin (25 ng/mL). Fluorescence signal normalized and depicted as percent of control. Data represent 3 separate experiments; each experiment included platelets pooled from 3 pups; (B) mepacrine fluorescence signal released into the supernatant after thrombin stimulation. Kruskal Wallis H test with Dunn's post-test for group comparisons; ** P<0.01,*** P<0.001 vs. control.
as §3, §4

Structures can show the parent of a compound that is named as a salt.

Take `N=C(N)c1ccc2nc(-c3cc(CC(=O)N[C@@H](CC(=O)O)C(=O)O)cc(-c4cc(S(N)(=O)=O)ccc4O)c3O)[nH]c2c1` [PCI-27483]: the “rise in plasma thrombin activity during intestinal injury” value with plasma thrombin activity is “blocked the rise”.
As for `N=C(N)NCCCC(NC(=O)C1CCCN1C(=O)[C@H](N)Cc1ccccc1)C(=O)CCl` (stereo partly drawn) [PPACK, D-phenylalanyl-N-[(1S)-4-[(aminoiminomethyl)amino]-1-(2-chloroacetyl)butyl]-L-prolinamide, trifluoroacetate salt], in data set [1], the distribution half-life is 7 min and the elimination half-life was 2.9 min. For the same compound, the LD50 entry in data set [2] (in vivo) is listed as “greater than 50 mg/kg”. Further, in data set [2] (mice), the long-term toxicity entry is listed as “no long-term toxicity”.
Turning to “bivalirudin: synthetic peptide of 20 amino acids (SEQ ID NO: 1); specific and reversible direct thrombin inhibitor”, the “CD31 expression on transfused YFP+ platelets” value is “blocked” in the data set with YFP+ platelets and “curtailed” with YFP+ platelets (listed as Bivalirudin). The “time bivalirudin-treated platelets remained refractory to thrombin” value in the data set with P10 platelets [3] was at least 120 min. For the same compound, in data set [4], the “effects of intestinal injury plasma on platelet CD31 expression” value is “blocked”. Moreover, in the data set with P10 platelets [5], the “platelet dense granule discharge caused by plasma from mice with intestinal injury” value was “blocked”.
For the compound “recombinant thrombin: Recombinant mouse thrombin (Molecular Innovations), used as platelet activator”, the “time to dense granule discharge” value with P10 platelets [6] is on record as at most 15 min.

(Values after patent publication US11779544B1, “Antithrombotic nanoparticles and methods for treating necrotizing enterocolitis” (University of South Florida, priority 2018, dated 2023).)
